According to patent US6590123B2, “Aminobenzoic acid derivatives having anti-tumorigenic activity, methods of making and using the same” (Mount Sinai School of Medicine of New York University, priority 1998, dated 2003):
Converted amounts (≈) assume the structure as drawn.

Columns and labels:
[1] = system: mitotic spindles (β-tubulin) in CEM cells; test: Immunofluorescent detection of mitotic spindles; format: cell-based, human; settings: for Antimicrotubule: CEM cells, 0.025 μg/ml, immunofluorescent staining
Procedure: […] After incubation, cells were washed twice in PBS. Cell pellets were resuspended in drug-free medium and incubated for 48 hr at 37° C. Cell viability, morphology, mitotic spindles, cell cycle distribution and apoptosis were determined 24 hr and 48 hr post pulse exposure.
CEM cells incubated in the absence or presence of 3-BAABU were collected and centrifuged in a Cytospin at 700 g for 5 min. The slides were air dried and fixed with methanol for 20 min at −20° C. The slides were incubated in PBS containing. 1% BSA at 37° C. for 30 min. After washing with PBS for 3 min, cells on the slides were covered with 30 μl anti-human β-tubulin monoclonal antibody (4 μg/ml) (Accurate Antibody, Westbury, N.Y.) and placed in a humid chamber at room temperature for 60 min. The slides were washed three times for 3 min each in PBS followed by staining with 10 μl FITC labeled goat anti-mouse antibody (Coulter, Hialeah, Fla.) in a humid chamber at room temperature for 60 min. After washing in, PBS, the immunofluorescent stained cells were visualized under a fluorescence microscope (Model MC 63, Zeiss, Germany).

[2] = system: EL4 murine leukemia lymphoma; test: Cytotoxicity, ID50 and ID90 by trypan blue exclusion; format: cell-based; settings: 48 hr
Procedure: (§1) All cell lines, with the exception of human SP cells, a biphenotypic leukemic cell line (reference 10 & 11), were obtained from the American Tissue Culture Collection (Rockville, Md.) and were cultured under conditions recommended by the vendor. EL4 murine leukemia lymphoma (as suspension) and B16 mouse melanoma (as monolayer) cell lines were cultivated in RPMI-1640 medium supplemented with 10% fetal bovine serum (FBS), penicillin (250 μ/ml) and streptomycin (250 μml); MOT, a non-tumor proliferative myocardial cell line from rat and NIH 3T3, a non-malignant and proliferative fibroblast cell line from mouse were both cultured as monolayers in Dulbecco's Modified Eagle's Medium with 10% heat inactivated calf serum. CEM, a human acute T-cell leukemic cell line, was cultured as a suspension in Iscove's Dulbecco's Medium with 10% heat inactivated fetal calf serum and antibiotics. […]
(§2) Cells in suspension culture were seeded into 96-well microplates (Falcon, Oxnard, Calif.) at 10^5 cell per well, followed, by treatment with 0-10 μg/ml of the candidate compounds for 48 hr at 37° C. with total volume of 250 μl per well. Cell viability was assessed by trypan blue exclusion.
(§3) The ID50 and ID90 was determined in duplicate in every set of experiments, and each experiment was repeated 3 times under identical conditions. […]

[3] = system: SP cells; test: as above; format: cell-based; settings: Human MDS, 48 hr
Procedure: as §1, §2, §3

[4] = system: B16 mouse melanoma; test: Cytotoxicity, ID50 and ID90 (monolayer culture); format: cell-based; settings: B16, Murine melanoma, 48 hr
Procedure: as §1, with “antibiotics. PC-3 cells, a human prostate cancer line, was cultured as monolayers in RPMI-1640 with 10% FBS. SP cells were cultured in Minimum Eagle's Medium plus 10% FBS. Human peripheral blood lymphocytes (PBL) were isolated from whole blood of healthy individuals by Ficoll-Hypaque gradient method.” for “antibiotics.”
as §3

[5] = system: PC-3 cells; test: Cytotoxicity, ID50 and ID90 (monolayer culture); format: cell-based; settings: PC-3, Human Prostate Cancer, 48 hr
Procedure: as §1, with “antibiotics. PC-3 cells, a human prostate cancer line, was cultured as monolayers in RPMI-1640 with 10% FBS. SP cells were cultured in Minimum Eagle's Medium plus 10% FBS. Human peripheral blood lymphocytes (PBL) were isolated from whole blood of healthy individuals by Ficoll-Hypaque gradient method.” for “antibiotics.”
as §3

[6] = system: PC-3 cells; test: Block of mitosis, morphology by microscopy; format: cell-based, human; parameters: key to Block of Mitosis: +Block of mitosis was observed; −no mitotic blocking
Procedure: (§4) All cell lines, with the exception of human SP cells, a biphenotypic leukemic cell line (reference 10 & 11), were obtained from the American Tissue Culture Collection (Rockville, Md.) and were cultured under conditions recommended by the vendor. EL4 murine leukemia lymphoma (as suspension) and B16 mouse melanoma (as monolayer) cell lines were cultivated in RPMI-1640 medium supplemented with 10% fetal bovine serum (FBS), penicillin (250 μ/ml) and streptomycin (250 μml); MOT, a non-tumor proliferative myocardial cell line from rat and NIH 3T3, a non-malignant and proliferative fibroblast cell line from mouse were both cultured as monolayers in Dulbecco's Modified Eagle's Medium with 10% heat inactivated calf serum. CEM, a human acute T-cell leukemic cell line, was cultured as a suspension in Iscove's Dulbecco's Medium with 10% heat inactivated fetal calf serum and antibiotics. PC-3 cells, a human prostate cancer line, was cultured as monolayers in RPMI-1640 with 10% FBS. SP cells were cultured in Minimum Eagle's Medium plus 10% FBS. Human peripheral blood lymphocytes (PBL) were isolated from whole blood of healthy individuals by Ficoll-Hypaque gradient method. Isolated PBL were maintained in RPMI-1640 in the presence of 10% homologous plasma at 37° C. All cells were incubated at 37° C. in 5% C02. Cells in exponential growth were used.
(§5) Cell samples on slides were prepared by a Cytospin centrifuge (Shandon Southern Products Ltd, England) at 700 g for 5 min. The slides were air dried, fixed in methanol and stained with Giemsa (Harleco, N.J.) at room temperature for 15 min. Alterations of nuclei, membranes and morphological features were observed by light microscopy. Cells in mitotic phase were recognized by the appearance of their chromosomes dispersed in the cytoplasm, and by the disappearance of nuclear membrane. Apoptotic-cells were identified using previously defined criteria, i.e., shrinkage in cell size, chromatin condensation and fragmentation of the nucleus into discrete masses (references 2 & 3). Necrotic cells were differentiated from apoptotic cells by observing swollen cytoplasm and the disappearance of cell membrane prior to the destruction of the nucleus.

[7] = system: SP cells; test: Block of mitosis, morphology by microscopy; format: cell-based, human; parameters: key to Block of Mitosis: +Block of mitosis was observed; −no mitotic blocking
Procedure: as §4, §5

[8] = system: EL4 murine leukemia lymphoma; test: Block of mitosis, morphology by microscopy; format: cell-based; parameters: key: +Block of mitosis was observed; −no mitotic blocking; settings: 37° C. for 48 hr
Procedure: as §4, with “used. […]” for “used.”

[9] = system: B16 mouse melanoma; test: Block of mitosis, morphology by microscopy; format: cell-based; parameters: key to Block of Mitosis: +Block of mitosis was observed; −no mitotic blocking
Procedure: as §4, §5

[10] = system: Human peripheral blood lymphocytes (PBL); test: Block of mitosis, morphology by microscopy; format: cell-based; parameters: key to Block of Mitosis: +Block of mitosis was observed; −no mitotic blocking
Procedure: as §4, §5

[11] = system: MOT myocardial cell line; test: Block of mitosis, morphology by microscopy; format: cell-based, rat; parameters: key to Block of Mitosis: +Block of mitosis was observed; −no mitotic blocking
Procedure: as §4, with “used. […]” for “used.”

[12] = system: NIH 3T3 fibroblast cell line; test: Block of mitosis, morphology by microscopy; format: cell-based, mouse; parameters: key to Block of Mitosis: +Block of mitosis was observed; −no mitotic blocking
Procedure: as §4, with “used. […]” for “used.”

Question: Which results are given for `NC(=O)NC(=O)c1cccc(NC(=O)CBr)c1` [Compound 8, 3-Bromoacetoamido, benzoylurea]?
Answer: Antimicrotubule ([1]; Continuous Exposure (24 hr; 48 hr in footnote)): ++++ (++++: >75% cells were affected); Antimicrotubule ([1]; Pulse Exposure (1 hr)): ++++ (++++: >75% cells were affected); formation of mitotic spindles, immunofluorescent staining for β-tubulin ([1]; mitotic CEM cells arrested by the compound): none of them showed positive staining for mitotic spindles or astral microtubules; ID90 [2]: 0.02 ± 0.004 mg/L (≈ 0.0666 µM); ID90 [3]: 0.71 ± 0.11 mg/L (≈ 2.37 µM); ID90 [4]: 0.76 ± 0.09 mg/L (≈ 2.53 µM); ID90 [5]: 0.95 ± 0.17 mg/L (≈ 3.17 µM); Block of Mitosis ([6]; PC-3, Human Prostate Cancer, 37° C. for 48 hr): +; morphologic effect ([6]; PC-3 human prostate cancer cells, 0.1 μg/ml, 24 hr at 37° C.): induced mitotic arrest; morphologic effect ([7]; SP human lymphoid leukemic cells, 0.025 μg/ml, 24 hr at 37° C.): induced mitotic arrest; Block of Mitosis ([7]; SP, Human MDS, 37° C. for 48 hr, arrest = mitotic cells >50% vs controls): +; Block of Mitosis [8]: +; Block of Mitosis ([9]; B16, Murine melanoma, 37° C. for 48 hr): +; morphologic effect ([9]; murine melanoma cells, 0.25 μg/ml, 24 hr at 37° C.): induced mitotic arrest; Block of Mitosis ([10]; Normal human PBL (non-tumor), 37° C. for 48 hr): −; morphologic effect ([10]; normal human lymphocytes, 2 μg/ml, 24 hr at 37° C.): no effect; Block of Mitosis ([11]; MOT, Rat myocardiac cells (non-tumor), 37° C. for 48 hr): −; morphologic effect ([11]; rat myocardial cells, 1.0 μg/ml, 24 hr at 37° C.): no effect; Block of Mitosis ([12]; 3T3, Murine fibroblast (non-tumor), 37° C. for 48 hr): −; morphologic effect ([12]; murine fibroblast cells, 1.0 μg/ml, 24 hr at 37° C.): no effect
